According to PubChem BioAssay AID179 (DTP/NCI, 2004):
pEC50, pIC50: −log10 of the molar value. Activity calls are given as the source filed them.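 Rule for the calls: active = compounds giving half or more protection of infected cells from virus-caused growth loss, again on retest; inactive = the rest.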 Where a SMILES comes first, the peptide text is derived from it. [ ]: non-standard residue; d: D form. The star is where a group is joined. Arg(NO2) = N=C(NCCC[CH](N)C(=O)O)N[N+](=O)[O-]; Cbz = O=C(OCc1ccccc1)*

Test system: CEM cells HIV-1 protection, formazan growth assay
Assay: NCI AIDS Antiviral Assay
Settings: for pIC50: measured here: growth of uninfected CEM cells
In short: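 Category rules: moderately active means at least 50% protection on retest, and confirmed active means 100% protection reproducibly. The underlying data came from a formazan growth assay in HIV-1-infected CEM cells.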

## Cc1cccc(N=Nc2ccc(O)c(CN(C)C)c2)c1
  pEC50: < 3.70
  pIC50: 4.46

## C1C2CC3C1C1C[S+]3CC21 (stereo unspecified)
  pEC50: < 3.42
  pIC50: < 3.42

## CCCN1CCC=C([Si](C)(C)C)C1
  outcome: inactive

## O=c1[nH]c(Nc2cccc(Cl)c2)nc2nc[nH]c12
  pEC50: < 3.70
  pIC50: 3.82

## CNC(=O)C(C)Oc1ccc(OCC2CCCCC2)cc1 (stereo unspecified)
  pEC50: < 3.77
  pIC50: 4.52

## C[Si](C)(C)C#C/C(CO)=C(/C#C[Si](C)(C)C)CO
  pEC50: < 4.47
  pIC50: < 4.47

## Cc1cc(Cl)ccc1NC(=O)C(=O)C(C(=O)c1ccccc1)C1OC(=O)c2ccccc21 (stereo unspecified)
  pEC50: < 3.25
  pIC50: 3.52

## O=c1c2ncn(CCCl)c2n(-c2ccccc2)c(=S)n1-c1ccccc1
  pEC50: < 3.70
  pIC50: < 3.70

## CC12Cc3ccccc3CC1OCN1CN2COC2Cc3ccccc3CC21C (stereo unspecified)
  pEC50: < 4.88
  pIC50: < 4.88

## O=C1C=C(O)C(=Cc2c(O)cc(O)cc2O)C(O)=C1
  outcome: inactive

## O=C(N/N=C1\CCc2ccccc21)N/N=C1\CCc2ccccc21
  pEC50: < 3.70
  pIC50: < 3.70

## Cc1cc(N(CCC#N)CCC#N)ccc1/C(N=Nc1ccc(C(=O)O)cc1)=N\NC(=O)c1ccccc1
  pEC50: < 3.70
  pIC50: 4.87

## CCOC(=O)c1[nH]n(-c2ccccc2)c(=O)c1C=NC(C)=S
  pEC50: < 3.70
  pIC50: < 4.00

## COc1cc2c(cn1)[nH]c1ccccc12
  outcome: inactive

## CCCCCCCCCCOCCC(=O)O
  pEC50: < 3.70
  pIC50: 4.05

## O=C(OC1CCC(=C2SCCCS2)[C@H]1C1SCCCS1)c1ccccc1 (stereo partly specified)
  outcome: inactive

## O=C1CCCc2cc3c(cc21)CC1(C3)Cc2cc3c(cc2C1)C(=O)CCC3
  pEC50: < 3.70
  pIC50: 6.01

## Cc1cc2c(c(C#N)c1C)NC(=O)CN=C2c1ccccc1F
  pEC50: 4.15
  pIC50: < 3.70

## O=S(=O)(O)c1cc(Nc2ccnc3ccccc23)c2c(S(=O)(=O)O)cc(S(=O)(=O)O)cc2c1
  pEC50: < 3.70
  pIC50: < 3.70

## O=C(CCCl)N1CCN(C(=O)CCCl)c2c1c1ccccc1c1ccccc21
  pEC50: < 3.70
  pIC50: 5.52

## COC(=O)NC(C(F)(F)F)(C(F)(F)F)P1(=O)OCCCO1
  pEC50: < 3.70
  pIC50: 4.20

## CN(C)C(=S)/N=c1\ssc(=S)n1C1CCCCC1
  outcome: inactive

## Cn1cnc([N+](=O)[O-])c1Sc1nc(N)nc2c1ncn2C1OC(CO)C(O)C1O (stereo unspecified)
  pEC50: < 3.70
  pIC50: 6.51

## CCC1CN2CCc3cc(OC)c(OC)cc3C2CC1CC1c2cc(OC)c(OC)cc2CCN1C(=O)C(Cc1c[nH]c2ccccc12)NC(=O)OC(C)(C)C (stereo unspecified)
  outcome: inactive

## COc1c2c(cc3c1C(=O)c1c(O)cccc1C3=O)CC(O)CC2 (stereo unspecified)
  pEC50: < 3.70
  pIC50: < 3.70

## CC(=O)OCC1OC(n2cc(C(F)(F)F)c(=O)[nH]c2=O)CC1OC(C)=O (stereo unspecified)
  pEC50: < 3.70
  pIC50: 5.61

## CSc1ccc(NC(=O)Nc2cc(C)cc(C)n2)cc1
  pEC50: < 3.70
  pIC50: < 3.70

## COC(=O)C(CCCN=C(N)N[N+](=O)[O-])NC(=O)C(Cc1ccccc1)NC(=O)C1CCCN1C(=O)OCc1ccccc1 (stereo not drawn) (Cbz-Pro-Phe-[Arg(NO2)]-OMe; configuration not given here)
  pEC50: < 3.95
  pIC50: < 3.95

## CCCCCCCCCCCCCCCCOC(=O)c1cc(OCCOP(=O)(O)O)cc(C(=O)OCCCCCCCCCCCCCCCC)c1
  outcome: inactive

## O=C(O)c1ccc(N=Nc2ccc(/C=C/c3ccc(N=Nc4ccc(C(=O)O)cc4O)cc3S(=O)(=O)O)c(S(=O)(=O)O)c2)c(O)c1
  pEC50: < 3.29
  pIC50: 5.37

## CCO[C@@H]1OC(=O)[C@H]2C(c3ccc(Cl)cc3Cl)=NO[C@@H]12
  pEC50: < 4.64
  pIC50: < 4.64

## O=C(OC(CC[P+](c1ccccc1)(c1ccccc1)c1ccccc1)(C(=O)c1ccccc1)c1ccccc1)c1ccccc1 (stereo unspecified)
  pEC50: < 3.70
  pIC50: 5.97

## COc1ccc2c(O)c(Cl)c(=O)oc2c1
  pEC50: < 3.70
  pIC50: < 3.70

## CNC(=O)CNC(=O)c1ccccc1SC(=O)CCCC[n+]1ccccc1
  pEC50: 5.71
  pIC50: 4.64

## Oc1ccc(Cl)cc1Cc1ccccc1
  pEC50: < 3.70
  pIC50: 4.40

## O=c1[nH]c(=S)c2cncnc2n1C1OC(CO)C(O)C1O (stereo unspecified)
  pEC50: < 3.70
  pIC50: < 3.70

## COc1ccc(-n2c(=O)c3[nH]c(=S)[nH]c3n(-c3ccc(OC)cc3)c2=S)cc1
  pEC50: < 3.70
  pIC50: < 3.70

## COc1cc(CNC(=O)CCCCCCCCCCSC#N)ccc1O
  pEC50: < 3.70
  pIC50: 4.56

## CCOC(=O)c1ccc(N2N=C3C(=CC(=O)c4ccccc43)SCC2=O)cc1
  pEC50: < 4.32
  pIC50: 4.71

## CCN(CC)CCOC(=O)c1cc2ccccc2[nH]1
  pEC50: < 3.70
  pIC50: < 3.70

## CC(C)N(C(=O)C12C3C4C5(C#N)C3C1(C#N)C5C42C#N)C(C)C (stereo unspecified)
  pEC50: < 4.49
  pIC50: < 4.49

## COc1nc2c(c(=O)[nH]1)N=C(c1ccc(Cl)cc1)CC(c1ccccc1)N2 (stereo unspecified)
  pEC50: < 3.70
  pIC50: 4.26

## O=C(O)c1ccc(-c2c3ccc(=O)cc-3oc3cc(O)ccc23)c(C(=O)O)c1
  pEC50: 4.22
  pIC50: 3.79

## COc1nc(NC2OC(COC(C)=O)C(OC(C)=O)C(OC(C)=O)C2OC(C)=O)c(C(=O)CCl)c(=O)n1C (stereo unspecified)
  outcome: inactive

## Cc1cc(C)c(NS(=O)c2cccc(C(F)(F)F)c2)c(C)c1 (stereo unspecified)
  pEC50: < 3.96
  pIC50: < 3.96

## CCN(CC)CCNc1nc2c([nH]1)c(=O)n(C)c(=O)n2C
  pEC50: < 3.12
  pIC50: 3.66

## COc1ccc([C@H]2CC3C(=O)N(c4ccc(OC)cc4)C(=O)C3c3[nH]c4ccccc4c32)cc1 (stereo partly specified)
  pEC50: < 5.78
  pIC50: < 5.78

## COC(OC)C(O)C1OC=CC1n1cnc2c(N)ncnc21 (stereo unspecified)
  pEC50: < 3.70
  pIC50: < 3.70

## CSc1n[nH]c(NC(=O)c2ccccc2Cl)n1
  pEC50: < 3.88
  pIC50: < 3.88

## CCO/C(Cc1ccc(Cl)cc1)=N/NC(N)=S
  pEC50: < 3.70
  pIC50: 4.02

## C/C(=N/NC(=O)c1ccccc1Nc1ccccc1C(=O)N/N=C(\C)c1ccc(C)cc1)c1ccc(C)cc1
  pEC50: < 4.70
  pIC50: 5.05

## N/N=C1/CCCc2nonc21
  pEC50: < 3.70
  pIC50: < 3.70

## CC(=O)c1cc2sc3ccccc3c2[nH]1
  pEC50: < 3.70
  pIC50: < 3.70

## N#C/C(=C\c1ccc(F)cc1)C(=O)c1ccccc1
  pEC50: < 4.15

## O=C1Nc2ccccc2Oc2ccccc21
  pEC50: 4.29
  pIC50: < 3.70

## COc1cc2c3c(c1)nnn3C(=O)C(c1ccccc1)S2 (stereo unspecified)
  pEC50: < 3.70
  pIC50: < 3.70

## NC1=NN(c2ccccc2)C(=O)C1C(=O)C(=O)NC1C2CC3CC(C2)CC1C3 (stereo unspecified)
  pEC50: < 4.86
  pIC50: < 4.86

## CS(=O)(=O)C(=Cc1ccccc1Cl)S(C)(=O)=O
  outcome: inactive

## COc1ccc(-c2c3c(n(C4OC(CO)C(O)C(O)C4O)c(=S)c2C#N)CCC3)cc1 (stereo unspecified)
  pEC50: < 3.70
  pIC50: 4.36

## NC(=O)c1csc(C2(O)COC(CO)C2O)n1 (stereo unspecified)
  pEC50: < 3.70
  pIC50: < 3.70

## CCCCNC(=NCc1ccccc1)NC#N
  pEC50: < 3.39
  pIC50: 3.53

## CC1=NN(c2nc(N)nc(C(C)Sc3cc(Cl)c(C)cc3S(N)(=O)=O)n2)C(C)(C)C1 (stereo unspecified)
  pEC50: < 3.70
  pIC50: 4.37

## [O-]c1c2c(nn1-c1ccccc1)c1ccccc1c[n+]2Cc1ccccc1
  outcome: inactive

## COc1ccc2c3ccc4c(c3n(C)c2c1)C(=O)C=CC4=O
  pEC50: < 5.45
  pIC50: < 5.45

## c1scc2c1COCCOCCOCCOCCOCCOCCOC2
  pEC50: < 3.19
  pIC50: < 3.19

## O=c1c(O)c(-c2ccc3c(c2)OCO3)oc2c(Cl)cc(Cl)cc12
  pEC50: < 4.00
  pIC50: < 4.00

## CCNCCNC(=O)c1ccc(Br)cc1
  outcome: inactive

## Cc1ccc(-c2nc(SCC(=O)O)n[nH]2)cc1
  pEC50: < 3.00
  pIC50: 3.15

## CCC1(NC(=O)CN)C(=O)NC(=O)NC1=O
  pEC50: < 3.70
  pIC50: < 3.70

## N#Cc1cccc2c1Nc1ccccc1S2
  pEC50: < 4.63
  pIC50: < 4.63

## COc1ccc(S(=O)(=O)O)cc1C(=O)c1cc(S(=O)(=O)O)ccc1OC
  pEC50: < 3.24
  pIC50: < 3.24

## CCOC(=O)Cc1csc(Nc2ccc(OCC)cc2)n1
  pEC50: < 3.67
  pIC50: 3.84

## CC(=O)O[C@H]1CC[C@@]2(C)C(=CC[C@@H]3C2CC[C@]2(C)Nc4nc5ccccc5cc4CC32)C1 (stereo partly specified)
  outcome: inactive

## CCOC(=O)c1ccc(CS(=O)(=O)c2ccccc2)c([N+](=O)[O-])c1
  pEC50: < 3.99
  pIC50: < 3.99

## CC1CN=C(Cc2ccc(NC(=O)c3ccc(C(=O)Nc4ccc(CC5=NCC(C)N5)cc4)cc3)cc2)N1 (stereo unspecified)
  pEC50: < 3.70
  pIC50: 3.96

## COC1C(=O)CCC2(CO2)C1(O)C1(C)OC1CC=C(C)C (stereo unspecified)
  pEC50: < 3.70
  pIC50: 5.54

## NC1OC(COC(=O)c2ccccc2)C(O)C(OC(=O)c2ccccc2)C1OC(=O)c1ccccc1 (stereo unspecified)
  pEC50: < 3.70
  pIC50: 6.03

## CCOC(=O)CCC(NC(=O)c1ccc(NC(OC)c2nc3cc(C(F)(F)F)ccc3nc2-c2ccccc2)cc1)C(=O)OCC (stereo unspecified)
  pEC50: < 5.09
  pIC50: < 5.09

## CC12CCC([C@H](C(O)C3CCCCC3)C1=O)C2(C)C (stereo partly specified)
  pEC50: < 3.70
  pIC50: 4.28

## COc1nc(OC)c2c(=O)oc(-c3ccccc3)cc2n1
  outcome: inactive

## CC(C)(C)OC(=O)C1=C(O)C(C(=O)OC(C)(C)C)C23CCCCC12C(C(=O)OC(C)(C)C)C(O)=C3C(=O)OC(C)(C)C (stereo unspecified)
  outcome: inactive

## CCOC(=O)C(=Cc1cccc(F)c1)C(=O)OCC
  pEC50: < 3.45
  pIC50: 4.65

## O=S(=O)(O)c1cc(N=[N+]([O-])c2cc(S(=O)(=O)O)c3ccccc3c2)cc2ccccc12
  pEC50: < 3.70
  pIC50: 4.03

## CC(C)Oc1cc2c(c3oc(=O)c4c(c13)CCCC4)C(=O)[C@H](C)[C@@H](C)O2
  pEC50: < 3.70
  pIC50: 4.91

## S=c1n(-c2ccc(Cl)cc2)c2nc3ccccc3nc(/c2=N\Nc2cc(Cl)ccc2Cl)n1-c1ccc(Br)cc1
  pEC50: < 4.12
  pIC50: 4.71

## COc1c(C)c(C/C=C(\C)CCCCO)c(OC)c(OC)c1OC
  pEC50: < 3.70
  pIC50: 4.58

## CCC1CC[N-]CC1.CCC1CC[N-]CC1.CCC1CC[N-]CC1.CCC1CC[N-]CC1.N#C[S-].N#C[S-].[Mn]
  pEC50: < 3.70
  pIC50: 4.56

## O=C1c2ccccc2-c2nnc3c(c21)Cc1ccccc1C3
  pEC50: < 3.70
  pIC50: < 3.70
